Measured values taken from ChEMBL document CHEMBL1201862, “PubChem BioAssay data set” (2004).
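These data come from cells grown in 96-well plates and exposed to compound for 48 hours at five concentrations. The concentration for 50% growth inhibition is given as GI50.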 The source made the active and inactive calls. No stated cut-off is given here; in the data, active = GI50 up to about 1.1 µM and inactive = higher.

Legend:
Assay in all cases: NCI-60 cell line screen, 48 h
HOP-62 = tested on: HOP-62
NCI-H226 = tested on: NCI-H226
UO-31 = tested on: UO-31
CCRF-CEM = tested on: CCRF-CEM
CAKI-1 = tested on: CAKI-1
HCT-116 = tested on: HCT-116
NCI-H460 = tested on: NCI-H460
UACC-257 = tested on: UACC-257
EKVX = tested on: EKVX
NCI/ADR-RES = tested on: NCI/ADR-RES
RXF 393 = tested on: RXF 393
TK-10 = tested on: TK-10
LOX IMVI = tested on: LOX IMVI
HCC 2998 = tested on: HCC 2998
IGROV-1 = tested on: IGROV-1
MDA-N = tested on: MDA-N
NCI-H522 = tested on: NCI-H522
MDA-MB-435 = tested on: MDA-MB-435
SK-MEL-28 = tested on: SK-MEL-28
OVCAR-5 = tested on: OVCAR-5

Measured: GI50

O=C1c2cccc3cc([N+](=O)[O-])cc(c23)C(=O)N1O
inactive: HOP-62 32.8 µM | NCI-H226 31 µM | UO-31 31.7 µM | CCRF-CEM 27 µM | CAKI-1 31.7 µM | HCT-116 27 µM | NCI-H460 27.2 µM | UACC-257 33.7 µM | EKVX 47.9 µM | NCI/ADR-RES 40.8 µM | RXF 393 33 µM | TK-10 25.9 µM | LOX IMVI 25.9 µM | HCC 2998 25.2 µM | IGROV-1 22.9 µM | MDA-N 47 µM | NCI-H522 58.7 µM | MDA-MB-435 34.3 µM | SK-MEL-28 45.8 µM | OVCAR-5 44.1 µM

O=C(Nc1ccc2ncccc2c1)c1cc2c(cc1Cl)Sc1nccn1S2(=O)=O
inactive: HOP-62 16.4 µM | NCI-H226 18.1 µM | UO-31 18.2 µM | CAKI-1 22 µM | HCT-116 12.8 µM | NCI-H460 15.7 µM | UACC-257 20.1 µM | EKVX 19.1 µM | NCI/ADR-RES 19 µM | RXF 393 15.6 µM | TK-10 20.4 µM | LOX IMVI 12.9 µM | HCC 2998 14.7 µM | IGROV-1 12.6 µM | MDA-N 5.56 µM | NCI-H522 8.97 µM | MDA-MB-435 4 µM | SK-MEL-28 18.4 µM | OVCAR-5 20.9 µM

COc1ccc(OC)c(-c2cc(=O)c3c(OC)c(OC)c(OC)c(OC)c3o2)c1
inactive: HOP-62 27.6 µM | NCI-H226 26.2 µM | UO-31 15.4 µM | CCRF-CEM 13.4 µM | CAKI-1 40.6 µM | HCT-116 27.6 µM | NCI-H460 25.4 µM | UACC-257 36.2 µM | EKVX 33 µM | NCI/ADR-RES 22.8 µM | RXF 393 22 µM | TK-10 37.9 µM | LOX IMVI 25.6 µM | HCC 2998 28.6 µM | IGROV-1 29.9 µM | MDA-N 35.9 µM | NCI-H522 20 µM | MDA-MB-435 28 µM | SK-MEL-28 40.1 µM | OVCAR-5 49.1 µM

Cn1c(=O)c2nc(CCCCc3nc4ccccc4[nH]3)[nH]c2n(C)c1=O
inactive: HOP-62 > 100 µM | NCI-H226 78.3 µM | UO-31 35.4 µM | CCRF-CEM > 100 µM | CAKI-1 50.8 µM | HCT-116 > 100 µM | NCI-H460 > 100 µM | UACC-257 > 100 µM | EKVX > 100 µM | NCI/ADR-RES > 100 µM | RXF 393 > 100 µM | TK-10 > 100 µM | LOX IMVI > 100 µM | HCC 2998 > 100 µM | IGROV-1 > 100 µM | MDA-N > 100 µM | NCI-H522 > 100 µM | MDA-MB-435 > 100 µM | SK-MEL-28 > 100 µM | OVCAR-5 > 100 µM

COc1cc(/C=[N+](\[O-])c2ccccc2Cl)ccc1OC(=S)S
inactive: HOP-62 39.9 µM | NCI-H226 57.4 µM | UO-31 39.6 µM | CAKI-1 31.7 µM | HCT-116 32.5 µM | NCI-H460 27.2 µM | UACC-257 26.4 µM | EKVX 29.2 µM | NCI/ADR-RES 26.7 µM | RXF 393 26.4 µM | TK-10 64.4 µM | LOX IMVI 36.9 µM | HCC 2998 37 µM | IGROV-1 49.4 µM | MDA-N 29 µM | NCI-H522 26.5 µM | MDA-MB-435 20.8 µM | SK-MEL-28 35 µM | OVCAR-5 > 100 µM
